Measured values reported in patent publication US10517889B2, “Modulators of SMAD7 expression” (Ionis Pharmaceuticals, Inc., priority 2017, dated 2019).
Several values for one entry are separate records, joined by “and”; a condition that tells them apart may be missing. Equal entries are not always repeated.

Experiments:
[1] = Body and organ weights after oral gavage in CD-1 mice (Example 7); assay type: in vivo; conditions: 500 mg/kg oral gavage once daily for 4 weeks, end of study
Protocol: (§1) Groups of 7-8 week old male CD-1 mice were given an oral gavage dose once daily for 4 weeks of 500 mg/kg of Ionis SMAD7 oligonucleotides. Each group contained 8 mice. One group of male CD-1 mice was administered saline by oral gavage daily.
Final body weights were measured at the end of the study. There was no significant difference in the body weight of the mice treated with antisense oligonucleotide compared to the control.
None of the Ionis SMAD7 oligonucleotides caused any changes in organ weights outside the expected range for antisense oligonucleotides.

[2] = Oligonucleotide concentration in tissues by LC-MS/MS after subcutaneous administration in beagle dogs (Example 8); assay type: in vivo; conditions: 30 mg/kg subcutaneous, 48 hours after the last dose
Protocol: (§2) There were 4 animals per group.
Oligonucleotide concentrations of both ION 830025 and ION 798781 were detected in various tissues by LC-MS/MS analysis. The results are presented below, expressed as μg/g tissue. The data was collected 48 hours after the last dose.

human SMAD7 mRNA = test: Dose-dependent inhibition of human SMAD7 mRNA expression in Hep3B cells (Example 3, Study 1 and 2); assay type: cell-based; conditions: electroporation; for % inhibition of SMAD7 mRNA expression: approximately 16 hours; for IC50: Study 2 (740-20000 nM)
In short: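 Hep3B cells, 20,000 per well, electroporated with antisense oligonucleotide at 0.31, 1.25, 5.00 or 20.00 μM (first series) or 0.74, 2.22, 6.67 or 20.00 μM (second series). After ~16 h, SMAD7 mRNA measured by RT-qPCR (RTS5062), normalised to RIBOGREEN total RNA. Percent inhibition vs untreated cells; IC50 derived.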

dog SMAD7 mRNA = test: Pharmacology: dog SMAD7 mRNA expression in liver, kidney, duodenum, ileum and colon after subcutaneous administration in beagle dogs (Example 8); assay type: in vivo; conditions: 30 mg/kg subcutaneous, necropsy, normalized to HPRT1
Protocol: as §2
The pharmacological activity of the Ionis oligonucleotides in dogs was assessed by measuring dog SMAD7 mRNA expression in liver, kidney, duodenum, ileum, and colon at necropsy. All the human ASOs used are complementary to dog SMAD7 mRNA.
Tissue samples from all dogs were analyzed for SMAD7 mRNA expression using the primer probe set RTS34649 (forward sequence […], designated SEQ ID NO: 2740; reverse sequence […], designated SEQ ID NO: 2741; probe sequence […], designated SEQ ID NO: 2742), which was normalized to mRNA levels of the housekeeping gene, HPRT1. One-way ANOVA with Dunnet's comparison test was used for statistical analysis.

[3] = Body and organ weights after subcutaneous administration in beagle dogs (Example 8); assay type: in vivo; conditions: 30 mg/kg subcutaneous days 1, 3, 5, 8, 15, 22, 29, end of study
Protocol: as §2
Body weights as well as kidney, spleen, liver (with gall bladder), mesenteric lymph node, heart, and thymus weights were measured at the end of the study. […] Ionis SMAD7 oligonucleotides that caused any changes in organ weights outside the expected range for antisense oligonucleotides were excluded from further studies.

[4] = Hematology assays after oral gavage in CD-1 mice (Example 7); assay type: in vivo; design: RBC: unit not given here; conditions: 500 mg/kg oral gavage once daily for 4 weeks
Protocol: as §1
Blood obtained from all mouse groups was measured by an ADVIA2120i hematology analyzer (Siemens, USA) for measurements of the various blood cells, as well as other hematology markers. None of the Ionis SMAD7 oligonucleotides caused changes in the levels of any of the hematology markers outside the expected range for antisense oligonucleotides.

[5] = Hematology assays after subcutaneous administration in beagle dogs (Example 8); assay type: in vivo; conditions: 30 mg/kg subcutaneous days 1, 3, 5, 8, 15, 22, 29
Protocol: as §2
Blood samples were collected from the cephalic vein or saphenous vein of each animal. About 0.5 mL of blood samples was put into tubes containing the potassium salt of EDTA. Blood obtained from all dog groups was measured using an ADVIA2120i hematology analyzer for measurements of the various blood cells, as well as other hematology markers.

[6] = 740 nM, Study 2, relative to untreated control cells

829994 (GGAGGCAGGGCCGCGA; 3-10-3 cEt gapmer, further chemistry not given here) [compound 829994]
Body weight [1]: 35 g | Heart weight [1]: 0.18 g | Kidneys weight [1]: 0.62 g | Liver with gallbladder weight [1]: 2.02 g | Spleen weight [1]: 0.11 g | Full length oligonucleotide, Distal colon [2]: 7 µg/g | Full length oligonucleotide, Duodenum [2]: 23 µg/g | Full length oligonucleotide, Ileum [2]: 12 µg/g | Full length oligonucleotide, Kidney [2]: 894 µg/g | Full length oligonucleotide, Liver [2]: 335 µg/g | Full length oligonucleotide, Proximal colon [2]: 11 µg/g | % inhibition of SMAD7 mRNA expression (human SMAD7 mRNA; [6]): 25% | % inhibition of SMAD7 mRNA expression (human SMAD7 mRNA; 2220 nM, Study 2): 54% | % inhibition of SMAD7 mRNA expression (human SMAD7 mRNA; 6670.0 nM, Study 2): 69% | % inhibition of SMAD7 mRNA expression (human SMAD7 mRNA; 20000.0 nM, Study 2): 80% | IC50 (human SMAD7 mRNA): 1 µM | % inhibition of SMAD7 mRNA expression (compared to control), Distal colon (dog SMAD7 mRNA): 29% | % inhibition of SMAD7 mRNA expression (compared to control), Duodenum (dog SMAD7 mRNA): 2% | % inhibition of SMAD7 mRNA expression (compared to control), Ileum (dog SMAD7 mRNA): 32% | % inhibition of Smad7 mRNA expression (compared to control), Kidney (dog SMAD7 mRNA): 0% | % inhibition of Smad7 mRNA expression (compared to control), Liver (dog SMAD7 mRNA): 0% | % inhibition of SMAD7 mRNA expression (compared to control), Proximal colon (dog SMAD7 mRNA): 34% | Body weight [3]: 7335 g | Heart weight [3]: 57.9 g | Kidney weight [3]: 39.1 g | Liver weight [3]: 250.0 g | Mesenteric LN weight [3]: 9.0 g | Spleen weight [3]: 22.8 g | Thymus weight [3]: 6.3 g | Basophils [4]: 0.01 10^3/μL | Eosinophils [4]: 0.09 10^3/μL | Hematocrit [4]: 51.5% | Hemoglobin [4]: 15.2 g/dL | Lymphocytes [4]: 80.4% | MCH [4]: 15.1 pg | MCHC [4]: 29.5 g/dL | MCV [4]: 51.2 fL | Monocytes [4]: 0.10 10^3/μL | Neutrophils [4]: 14.0% | RBC [4]: 10.1 | Reticulocytes [4]: 3.0% | WBC [4]: 4.1 10^3/μL | platelets [4]: 1219 10^3/μL | Basophils [5]: 0.5% | Eosinophils [5]: 1.8% | Hematocrit [5]: 44% | Hemoglobin [5]: 15.3 g/dL | Lymphocytes [5]: 26% | MCH [5]: 23.2 pg | MCHC [5]: 35.1 g/dL | MCV [5]: 66 fL | Monocytes [5]: 6.3% | Neutrophils [5]: 65% | PLT [5]: 287 ^3/μL | RBC [5]: 6.6 ^6/L | Reticulocytes [5]: 0.9% | WBC [5]: 12.5 ^3/μL

830121 (AGAATCAAGCCCTGGC; 3-10-3 cEt gapmer, further chemistry not given here) [compound 830121]
Body weight [1]: 34 g | Heart weight [1]: 0.17 g | Kidneys weight [1]: 0.61 g | Liver with gallbladder weight [1]: 1.92 g | Spleen weight [1]: 0.10 g | Full length oligonucleotide, Distal colon [2]: 20 µg/g | Full length oligonucleotide, Duodenum [2]: 26 µg/g | Full length oligonucleotide, Ileum [2]: 26 µg/g | Full length oligonucleotide, Kidney [2]: 1468 µg/g | Full length oligonucleotide, Liver [2]: 443 µg/g | Full length oligonucleotide, Proximal colon [2]: 19 µg/g | % inhibition of SMAD7 mRNA expression (human SMAD7 mRNA; [6]): 37% and 54% | % inhibition of SMAD7 mRNA expression (human SMAD7 mRNA; 2220 nM, Study 2): 48% and 63% | % inhibition of SMAD7 mRNA expression (human SMAD7 mRNA; 6670.0 nM, Study 2): 69% and 79% | % inhibition of SMAD7 mRNA expression (human SMAD7 mRNA; 20000.0 nM, Study 2): 85% and 86% | IC50 (human SMAD7 mRNA): < 0.7 µM | % inhibition of SMAD7 mRNA expression (compared to control), Distal colon (dog SMAD7 mRNA): 21% | % inhibition of SMAD7 mRNA expression (compared to control), Duodenum (dog SMAD7 mRNA): 55% | % inhibition of SMAD7 mRNA expression (compared to control), Ileum (dog SMAD7 mRNA): 0% | % inhibition of Smad7 mRNA expression (compared to control), Kidney (dog SMAD7 mRNA): 39% | % inhibition of Smad7 mRNA expression (compared to control), Liver (dog SMAD7 mRNA): 0% | % inhibition of SMAD7 mRNA expression (compared to control), Proximal colon (dog SMAD7 mRNA): 20% | Body weight [3]: 6091 g | Heart weight [3]: 52.6 g | Kidney weight [3]: 40.0 g | Liver weight [3]: 202.0 g | Mesenteric LN weight [3]: 12.2 g | Spleen weight [3]: 27.5 g | Thymus weight [3]: 2.8 g | Basophils [4]: 0.01 10^3/μL | Eosinophils [4]: 0.08 10^3/μL | Hematocrit [4]: 51.8% | Hemoglobin [4]: 15.1 g/dL | Lymphocytes [4]: 81.7% | MCH [4]: 15.0 pg | MCHC [4]: 29.1 g/dL | MCV [4]: 51.6 fL | Monocytes [4]: 0.15 10^3/μL | Neutrophils [4]: 11.6% | RBC [4]: 10.0 | Reticulocytes [4]: 3.0% | WBC [4]: 4.1 10^3/μL | platelets [4]: 1170 10^3/μL | Basophils [5]: 0.8% | Eosinophils [5]: 2.5% | Hematocrit [5]: 56% | Hemoglobin [5]: 18.5 g/dL | Lymphocytes [5]: 30% | MCH [5]: 21.7 pg | MCHC [5]: 32.9 g/dL | MCV [5]: 66 fL | Monocytes [5]: 7.7% | Neutrophils [5]: 59% | PLT [5]: 249 ^3/μL | RBC [5]: 8.5 ^6/L | Reticulocytes [5]: 0.5% | WBC [5]: 8.2 ^3/μL
